The text below walks through data of ChEMBL document CHEMBL2074166, “Transport of fluorescein in MDCKII-MRP1 transfected cells and mrp1-knockout mice” (Biochem Biophys Res Commun, 2001).

In the data set the target is Multidrug resistance-associated protein 1 (Homo sapiens, UniProt P33527). Kind of data set: TP_TRANSPORTER: intracellular accumulation in MRP1-expressing MDCKII cells. It is filed as functional, cell-based. Conditions: dog, mdck-ii.
Multidrug resistance-associated protein 1, sequence (P33527 whole entry): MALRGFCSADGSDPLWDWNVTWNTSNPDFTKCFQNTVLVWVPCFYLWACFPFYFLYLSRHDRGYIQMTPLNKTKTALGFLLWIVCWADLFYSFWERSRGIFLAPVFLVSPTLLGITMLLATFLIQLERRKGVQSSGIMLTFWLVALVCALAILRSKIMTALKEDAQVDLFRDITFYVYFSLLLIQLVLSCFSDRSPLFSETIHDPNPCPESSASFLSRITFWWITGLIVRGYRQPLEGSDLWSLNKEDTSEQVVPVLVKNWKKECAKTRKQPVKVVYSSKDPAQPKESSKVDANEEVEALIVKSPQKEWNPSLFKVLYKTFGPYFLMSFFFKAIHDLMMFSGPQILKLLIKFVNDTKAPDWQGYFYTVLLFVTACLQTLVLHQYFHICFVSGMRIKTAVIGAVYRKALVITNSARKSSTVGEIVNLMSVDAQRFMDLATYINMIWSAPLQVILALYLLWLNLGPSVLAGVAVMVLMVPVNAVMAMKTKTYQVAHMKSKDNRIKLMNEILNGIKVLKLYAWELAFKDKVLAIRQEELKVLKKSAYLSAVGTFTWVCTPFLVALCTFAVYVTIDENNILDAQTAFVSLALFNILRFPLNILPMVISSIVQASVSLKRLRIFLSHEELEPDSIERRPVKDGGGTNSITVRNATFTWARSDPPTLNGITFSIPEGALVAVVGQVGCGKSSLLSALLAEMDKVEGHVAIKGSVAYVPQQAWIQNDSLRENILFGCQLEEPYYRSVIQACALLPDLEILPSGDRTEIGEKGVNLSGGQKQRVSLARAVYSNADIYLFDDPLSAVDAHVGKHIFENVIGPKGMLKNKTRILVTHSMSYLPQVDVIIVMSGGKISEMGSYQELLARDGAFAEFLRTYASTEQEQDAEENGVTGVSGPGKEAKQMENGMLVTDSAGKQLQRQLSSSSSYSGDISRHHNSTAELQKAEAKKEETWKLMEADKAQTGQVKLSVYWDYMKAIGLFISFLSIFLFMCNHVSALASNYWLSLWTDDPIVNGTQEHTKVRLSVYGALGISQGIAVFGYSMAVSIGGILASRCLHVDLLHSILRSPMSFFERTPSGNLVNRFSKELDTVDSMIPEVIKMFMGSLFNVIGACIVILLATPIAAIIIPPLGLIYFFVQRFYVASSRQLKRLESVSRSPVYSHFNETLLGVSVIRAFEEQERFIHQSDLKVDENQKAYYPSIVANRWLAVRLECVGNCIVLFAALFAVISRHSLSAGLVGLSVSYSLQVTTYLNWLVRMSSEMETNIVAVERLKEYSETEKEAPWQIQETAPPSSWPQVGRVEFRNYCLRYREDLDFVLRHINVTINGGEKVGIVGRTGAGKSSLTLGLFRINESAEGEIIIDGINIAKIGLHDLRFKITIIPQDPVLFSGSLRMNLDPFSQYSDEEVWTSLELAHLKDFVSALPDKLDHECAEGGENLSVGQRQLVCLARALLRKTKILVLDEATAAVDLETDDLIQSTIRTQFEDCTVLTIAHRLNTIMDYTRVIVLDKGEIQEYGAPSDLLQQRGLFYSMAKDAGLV

Regarding `O=C1OC2(c3ccc(O)cc3Oc3cc(O)ccc32)c2ccccc21` [FLUORESCEIN], the Activity result was “substrate [+]”.
